Data published in PubChem BioAssay AID1996.
Values after ≈ are worked out from the molar mass of the structure shown.

details: buffer; pH 7.4; 200.0 µM

Row | SMILES | solubility kinetic
1 | NC(=O)CN1C(=O)NC2(CCCc3sccc32)C1=O (stereo unspecified) | > 0.0419 mg/mL
2 | Cl.O=C1NCC2(CCN(CCc3ccccc3)CC2)O1 | > 0.0445 mg/mL
3 | Cc1ccc(-c2ocnc2C(=O)Nc2nc(C)cs2)cc1 | 0.0011 mg/mL (≈ 3.67 µM)
4 | CCC(C)c1ccccc1NC(=O)c1cc(C)no1 (stereo unspecified) | > 0.0387 mg/mL
5 | CCCCn1c(N)c(NCc2ccccc2)c(=O)[nH]c1=O | 0.0391 mg/mL (≈ 136 µM)
6 | O=C(COc1ccc(Cl)cc1Cl)OCC(=O)c1ccc[nH]1 | 0.0082 mg/mL (≈ 25 µM)
7 | Cc1ccnc(NC(=O)c2cnc(Cl)c(Cl)c2)c1 | 0.0064 mg/mL (≈ 22.7 µM)
8 | O=C(CCCCCCCCN1C(=O)c2ccccc2C1=O)N1CCOCC1 | 0.0434 mg/mL (≈ 117 µM)
9 | CCc1ccc(C(=O)Nc2ccc3c(c2)n(C)c(=O)n3C)cc1 | 0.0056 mg/mL (≈ 18.1 µM)
10 | Cc1ccc(S(=O)(=O)NC(=O)c2cccc(C)c2)cc1 | > 0.0434 mg/mL
11 | CC(NC1CCN(Cc2ccccc2)CC1)c1ccc(F)cc1 (stereo unspecified) | 0.0423 mg/mL (≈ 135 µM)
12 | Cc1cccc(SCC(=O)Nc2ccc3c(c2)OCCO3)c1 | 0.0364 mg/mL (≈ 115 µM)
13 | CC(=O)N1CCN(C(=O)c2ccc(Oc3ccccc3)cc2)CC1 | 0.0466 mg/mL (≈ 144 µM)
14 | Cc1cc(Sc2nc(N(C)C)nc(N(C)C)n2)nc(Cl)n1 | 0.001 mg/mL (≈ 3.07 µM)
15 | Cc1ccc(Cl)cc1NC(=O)C1CC(=O)N(C(C)C)C1 (stereo unspecified) | 0.0347 mg/mL (≈ 118 µM)

Other lines, results leading:

Row | solubility kinetic | SMILES
16 | 0.0032 mg/mL (≈ 9.8 µM) | CC(C)c1ccc(NC(=O)CSc2nc3ncccc3[nH]2)cc1
17 | > 0.0476 mg/mL | CC(C)CNC(=O)C1CCCN(C(=O)NCc2ccccc2)C1 (stereo unspecified)
18 | 0.0297 mg/mL (≈ 128 µM) | COc1c(C=O)cc2c3c1CCCN3CCC2
19 | > 0.0458 mg/mL | COc1ccc(C(=O)COC(=O)c2cc(C)no2)c(OC)c1
20 | > 0.0397 mg/mL | Cc1cc(=O)c(C(=O)O)nn1-c1ccc(Cl)cc1
21 | 0.0154 mg/mL (≈ 73.9 µM) | Cn1cccc1/C=C(\C#N)c1ccccc1
